Data set [1] is described as follows: Microsomal stability, human microsomes. It is filed as in vitro ADME. To be noted: human microsomes 0.3 mg/mL, 1 μM compound, 60 min at 37° C. The protocol: (§1) Assay for Microsomal Stability
(§2) For microsomal stability testing 1 μM conzentration of compound and human or rat microsomes (0.3 mg/mL, BD bioscience) are used in the in vitro assay. To ensure proper energy supply for microsomal degradation of compound, an energy regenerating system comprised of NADP, glucose 6-phosphate and glucose 6-phosphate dehydrogenase is added to samples and suspension is incubated for 60 min at 37° C. in rotary shaker. After incubation time, acetonitrile containing internal standard is added to stop metabolization by precipitation of proteins. After centrifugation step, supernatant is analysed by LC-MS/MS and percentage of compound remaining is analysed.

The target of data set [2] is MMP-13 (Homo sapiens, UniProt P45452). Nature of the data set: Assay for determining MMP-13 inhibition (fluorogenic substrate). It is filed as biochemical. The procedure:
The MMP-13 inhibiting activity of the bis-amide metalloprotease inhibiting compounds of the present invention may be measured using any suitable assay known in the art. A standard in vitro assay for MMP-13 inhibiting activity is described in Example 999 and a description of the microsomal stability assay is described in Example 999a.
Assay for Determining MMP-13 Inhibition
The typical assay for MMP-13 activity is carried out in assay buffer comprised of 50 mM Tris, pH 7.5, 150 mM NaCl, 5 mM CaCl2 and 0.05% Brij-35. Different concentrations of tested compounds are prepared in assay buffer in 50 μL aliquots. 10 μL of 40 nM stock solution of MMP-13 enzyme is added to the compound solution. The mixture of enzyme and compound in assay buffer is thoroughly mixed and incubated for 20 minutes at room temperature. Upon the completion of incubation, the assay is started by addition of 40 μL of 12.5 μM stock solution of MMP-13 fluorogenic substrate (Calbiochem Cat. No. 444235). The time-dependent increase in fluorescence is measured at the 325 nm excitation and 393 nm emission by automatic plate multireader. The IC50 values are calculated from the initial reaction rates. Selectivity assays were run in a similar manner using MMP-1, MMP-3, MMP-8, MMP-12, MMP-14 and TACE.

Data set [3] in a line: Microsomal stability, rat microsomes. Particulars: rat microsomes 0.3 mg/mL, 1 μM compound, 60 min at 37° C. It is filed as in vitro ADME. The protocol:
as §1, §2

Data set [4] can be described thus: Cell viability, comparison. It is filed as cell-based. To be noted: compared with unsubstituted Example 1040d.
A short description of data set [5]: Microsomal stability, comparison in text (species not stated). It is filed as in vitro ADME. Particulars: compared with unsubstituted Example 1040d. The protocol: as §2
Where [6] appears, read: Table 2, methyl substitution at R^2 or R^3, read-out: IC50 (nM), Comparison of MMP-13 Activity Versus Location of Substituent (R^2 or R^3).
[7] abbreviates: Table 1, read-out: IC50 (nM), Summary of MMP-13 Activity for Compounds of Formula I.

Molecules are shown by their SMILES. Read-outs that look alike come from different tables or passages of the source.

Take `COc1cccc(CNC(=O)c2cc(C(=O)N[C@H](C)c3ccc(-c4nnn[nH]4)cc3)ncn2)c1` (stereo in doubt) [Example 1006]: in data set [1], the “Human (%), microsomal stability, percentage of compound remaining” value (“Human (%) … percentage of compound remaining” below) is on record as 93%. For the same compound, in data set [2] (setting [6]), the IC50 is above 100 nM. In addition, the “Rat (%), microsomal stability, percentage of compound remaining” value (“Rat (%) … percentage of compound remaining” below) in data set [3] was 70%. Take `Cc1cc(CNC(=O)c2cc(C(=O)N[C@@H](C)c3ccc(C(=O)O)cc3)ncn2)ccc1F` [Example 1000]: the IC50 in data set [2] (setting [7]) was below 200 nM. On the same count and under the same terms, the value for `Cc1cc(CNC(=O)c2cc(C(=O)N[C@@H](C(N)=O)c3ccc(-c4nnn[nH]4)cc3)ncn2)ccc1F` [Example 1002] was below 10 nM. Take `O=C(NCc1ccc(F)cc1)c1cc(C(=O)N[C@@H](CO)c2ccc(-c3nnn[nH]3)cc2)ncn1` [Example 1004]: the IC50 in data set [2] (setting [7]) was below 200 nM. For `COc1cccc(CNC(=O)c2cc(C(=O)N[C@@H](C)c3ccc(-c4nnn[nH]4)cc3)ncn2)c1` [Example 1005], in data set [4], the “cell viability, in words” value is listed as “improvements”. Also, in data set [5], the “microsomal stability, in words” value is given as “improvements”. For the same compound, the IC50 in data set [2] (setting [6]) is below 10 nM. Turning to `Cc1cc(CNC(=O)c2cc(C(=O)N[C@@H](C)c3ccc(-c4nnn[nH]4)cc3)ncn2)ccc1F` [Example 1007], the IC50 in data set [2] (setting [7]) was below 10 nM.

For `C[C@H](NC(=O)c1cc(C(=O)NCc2ccc(F)cc2)ncn1)c1ccc(-c2nnn[nH]2)cc1` [Example 1007c], the “Human (%) … percentage of compound remaining” value in data set [1] came to 100%. In data set [3], the “Rat (%) … percentage of compound remaining” value came out at 90%. On to `C[C@H](NC(=O)c1cc(C(=O)NCc2cccs2)ncn1)c1ccc(-c2nnn[nH]2)cc1` [Example 1007d], for which, in data set [2] (setting [7]), the IC50 is below 1000 nM. Still for that read-out and setting: the value for `CCc1cc(CNC(=O)c2cc(C(=O)N[C@@H](C)c3ccc(-c4nnn[nH]4)cc3)ncn2)cs1` [Example 1007o] was below 200 nM; that for `Cc1cc(CNC(=O)c2cc(C(=O)N[C@@H](C)c3ccc(-c4noc(CCC(=O)O)n4)cc3)ncn2)ccc1F` [Example 1021] was below 200 nM; that for `Cc1cc(CNC(=O)c2cc(C(=O)N[C@@H](C)c3ccc(C(=O)N4CCOCC4)cc3)ncn2)ccc1F` [Example 1028e] was below 200 nM. Take `C[C@@H](NC(=O)c1cc(C(=O)NCc2ccc(-c3nnn[nH]3)cc2)ncn1)c1ccccc1` [Example 1040a]: the IC50 in data set [2] (setting [6]) was above 100 nM.

On to `C[C@H](NC(=O)c1cc(C(=O)NCc2ccc(-c3nnn[nH]3)cc2)ncn1)c1ccccc1` [Example 1040b], for which the “Human (%) … percentage of compound remaining” value in data set [1] was found to be 96%. Further, the IC50 in data set [2] (setting [6]) was below 10 nM. Moreover, the “Rat (%) … percentage of compound remaining” value in data set [3] came out at 96%. As for `COc1cccc(CNC(=O)c2cc(C(=O)NCc3ccc(-c4nnn[nH]4)cc3)ncn2)c1` [Example 1040d, pyrimidine-4,6-dicarboxylic acid 4-(3-methoxybenzylamide) 6-[4-(1H-tetrazol-5-yl)-benzylamide]], the “Human (%) … percentage of compound remaining” value in data set [1] is reported as 75%. Moreover, the “Rat (%) … percentage of compound remaining” value in data set [3] is listed as 38%. For `O=C(NCc1ccc(F)cc1)c1cc(C(=O)NCc2ccc(-c3nnn[nH]3)cc2)ncn1` [Example 1040e] the same measures were 98% and 58%.

(Values after patent US20070155739A1, “Substituted bis-amide metalloprotease inhibitors” (ALANTOS PHARMACEUTICALS, INC., priority 2005, published 2007).)
